Data from the NIST ThermoML archive (doi:10.1021/je700370z).
“And” between values parts separate entries of the source, which are not always exact repeats. Equal entries are not always repeated. ± gives the expanded uncertainty stated by the source.

Conditions: Liquid; for viscosity: Falling or rolling sphere viscometry; for mass density: Vibrating tube method

CCCCn1cc[n+](C)c1.F[B-](F)(F)F [1-butyl-3-methylimidazolium tetrafluoroborate]
Conditions	mass density	viscosity
273.15 K, 100 kPa	1219.64 ± 1.3 kg/m3	543 ± 63 mPa·s and 542.8 ± 63 mPa·s
273.15 K, 101.33 kPa	1219.5 ± 1.3 kg/m3 and 1219.64 ± 1.3 kg/m3	510.8 ± 43 mPa·s and 511 ± 43 mPa·s
278.15 K, 101.33 kPa	1215.79 ± 1.3 kg/m3	353 ± 26 mPa·s and 352.9 ± 26 mPa·s
283.15 K, 100 kPa	1212.22 ± 1.3 kg/m3	263.7 ± 18 mPa·s and 263.8 ± 18 mPa·s
283.15 K, 101.33 kPa	1212.07 ± 1.3 kg/m3 and 1212.22 ± 1.3 kg/m3	250.7 ± 16 mPa·s and 250.6 ± 16 mPa·s
283.15 K, 800 kPa	1212.53 ± 1.3 kg/m3	266.3 ± 18 mPa·s
283.15 K, 11000 kPa	1217.32 ± 1.4 kg/m3	302.2 ± 21 mPa·s
283.15 K, 24900 kPa	1223.58 ± 1.5 kg/m3	359.1 ± 26 mPa·s
283.15 K, 49600 kPa	1234.03 ± 1.8 kg/m3	484.8 ± 40 mPa·s
283.15 K, 75300 kPa	1244.07 ± 2.1 kg/m3	655.9 ± 59 mPa·s
283.15 K, 100600 kPa	1253.28 ± 2.4 kg/m3	875 ± 85 mPa·s
288.15 K, 101.33 kPa	1208.38 ± 1.3 kg/m3	182.4 ± 11 mPa·s
293.15 K, 100 kPa	1204.98 ± 1.3 kg/m3	142.1 ± 7.7 mPa·s and 142 ± 7.7 mPa·s
293.15 K, 101.33 kPa	1204.83 ± 1.3 kg/m3 and 1204.98 ± 1.3 kg/m3	135.6 ± 7.1 mPa·s and 135.7 ± 7.1 mPa·s
298.15 K, 100 kPa	1201.43 ± 1.3 kg/m3	108 ± 5.3 mPa·s and 108.5 ± 5.3 mPa·s and 108.7 ± 5.3 mPa·s
298.15 K, 101.33 kPa	1201.29 ± 1.3 kg/m3 and 1201.43 ± 1.3 kg/m3	103.7 ± 5 mPa·s [middle of 4 runs]
298.15 K, 500 kPa	1201.61 ± 1.3 kg/m3	108.6 ± 5.3 mPa·s
298.15 K, 25900 kPa	1213.76 ± 1.5 kg/m3	142.6 ± 7.6 mPa·s
298.15 K, 50800 kPa	1224.72 ± 1.8 kg/m3	185 ± 11 mPa·s
298.15 K, 75900 kPa	1234.94 ± 2 kg/m3	239.8 ± 15 mPa·s
298.15 K, 101100 kPa	1244.42 ± 2.3 kg/m3	308.3 ± 22 mPa·s
298.15 K, 126200 kPa	1253.22 ± 2.7 kg/m3	393.9 ± 30 mPa·s
298.15 K, 150600 kPa	1261.21 ± 3 kg/m3	499.9 ± 41 mPa·s
298.15 K, 150700 kPa	1261.23 ± 3 kg/m3	500.6 ± 41 mPa·s
298.15 K, 175400 kPa	1268.78 ± 3.3 kg/m3	634.7 ± 56 mPa·s
298.15 K, 200900 kPa	1276.07 ± 3.7 kg/m3	808.3 ± 77 mPa·s
303.15 K, 100 kPa	1197.88 ± 1.3 kg/m3	84.6 ± 3.8 mPa·s
303.15 K, 101.33 kPa	1197.75 ± 1.3 kg/m3 and 1197.88 ± 1.3 kg/m3	80.6 ± 3.6 mPa·s and 80.7 ± 3.6 mPa·s
313.15 K, 100 kPa	1190.78 ± 1.2 kg/m3	53.5 ± 2.3 mPa·s and 53.6 ± 2.3 mPa·s
313.15 K, 101.33 kPa	1190.68 ± 1.2 kg/m3	51.3 ± 2.2 mPa·s
323.15 K, 100 kPa	1183.79 ± 1.2 kg/m3	35.6 ± 1.5 mPa·s
323.15 K, 101.33 kPa	1183.67 ± 1.2 kg/m3 and 1183.79 ± 1.2 kg/m3	34.6 ± 1.5 mPa·s
323.15 K, 140 kPa	1183.79 ± 1.2 kg/m3	36 ± 1.5 mPa·s
323.15 K, 10495 kPa	1189.26 ± 1.3 kg/m3	39.3 ± 1.7 mPa·s
323.15 K, 25446 kPa	1196.8 ± 1.5 kg/m3	44.5 ± 1.9 mPa·s
323.15 K, 50493 kPa	1208.59 ± 1.7 kg/m3	55.5 ± 2.4 mPa·s
323.15 K, 75560 kPa	1219.46 ± 2 kg/m3	68.1 ± 3 mPa·s
323.15 K, 100566 kPa	1229.48 ± 2.2 kg/m3	83.3 ± 3.8 mPa·s
323.15 K, 125543 kPa	1238.76 ± 2.5 kg/m3	101.5 ± 4.9 mPa·s
323.15 K, 150422 kPa	1247.36 ± 2.9 kg/m3	123.2 ± 6.4 mPa·s
323.15 K, 175463 kPa	1255.42 ± 3.2 kg/m3	149.2 ± 8.3 mPa·s
323.15 K, 200347 kPa	1262.9 ± 3.5 kg/m3	180.1 ± 11 mPa·s
323.15 K, 225321 kPa	1269.94 ± 3.9 kg/m3	216.9 ± 13 mPa·s
323.15 K, 250139 kPa	1276.5 ± 4.3 kg/m3	260.9 ± 17 mPa·s
333.15 K, 100 kPa	1176.81 ± 1.2 kg/m3	25.2 ± 1.1 mPa·s and 25.5 ± 1.1 mPa·s
333.15 K, 101.33 kPa	1176.7 ± 1.2 kg/m3 and 1176.81 ± 1.2 kg/m3	24.5 ± 1 mPa·s
343.15 K, 100 kPa	1169.87 ± 1.2 kg/m3	18.4 ± 0.8 mPa·s and 18 ± 0.8 mPa·s
343.15 K, 101.33 kPa	1169.79 ± 1.2 kg/m3	18.1 ± 0.8 mPa·s
348.15 K, 100 kPa	1166.45 ± 1.2 kg/m3	16.2 ± 0.7 mPa·s and 15.9 ± 0.7 mPa·s
348.15 K, 101.33 kPa	1166.45 ± 1.2 kg/m3	–
348.15 K, 11700 kPa	1172.95 ± 1.3 kg/m3	17.4 ± 0.7 mPa·s
348.15 K, 25200 kPa	1180.23 ± 1.4 kg/m3	19.4 ± 0.8 mPa·s
348.15 K, 50700 kPa	1192.94 ± 1.6 kg/m3	23.3 ± 1 mPa·s
348.15 K, 75600 kPa	1204.4 ± 1.9 kg/m3	27.8 ± 1.2 mPa·s
348.15 K, 100600 kPa	1214.97 ± 2.2 kg/m3	33 ± 1.4 mPa·s
348.15 K, 125600 kPa	1224.72 ± 2.5 kg/m3	38.8 ± 1.7 mPa·s
348.15 K, 150600 kPa	1233.78 ± 2.8 kg/m3	45.6 ± 2 mPa·s
348.15 K, 175600 kPa	1242.2 ± 3.1 kg/m3	53.4 ± 2.4 mPa·s
348.15 K, 200600 kPa	1250.04 ± 3.4 kg/m3	62.3 ± 2.8 mPa·s
348.15 K, 225500 kPa	1257.34 ± 3.8 kg/m3	72.6 ± 3.4 mPa·s
348.15 K, 250400 kPa	1264.17 ± 4.1 kg/m3	84.6 ± 4.1 mPa·s
348.15 K, 275300 kPa	1270.59 ± 4.5 kg/m3	98.4 ± 4.8 mPa·s
348.15 K, 300000 kPa	1276.57 ± 4.9 kg/m3	114 ± 5.7 mPa·s
353.15 K, 101.33 kPa	1162.92 ± 1.2 kg/m3	13.9 ± 0.6 mPa·s and 13.8 ± 0.6 mPa·s
360.15 K, 101.33 kPa	1158.27 ± 1.2 kg/m3	–
362.76 K, 101.33 kPa	1156.51 ± 1.2 kg/m3	–
363.15 K, 101.33 kPa	1156.11 ± 1.2 kg/m3	–
363.16 K, 101.33 kPa	1156.22 ± 1.2 kg/m3	–
